Measured values: ChEMBL document CHEMBL5380794, “Discovery of a Potent and Selective STAT5 PROTAC Degrader with Strong Antitumor Activity In Vivo in Acute Myeloid Leukemia” (J Med Chem, 2023)

Molecular target: T1, Signal transducer and activator of transcription 5A (Homo sapiens, UniProt P42229)
T1 sequence (P42229 whole entry): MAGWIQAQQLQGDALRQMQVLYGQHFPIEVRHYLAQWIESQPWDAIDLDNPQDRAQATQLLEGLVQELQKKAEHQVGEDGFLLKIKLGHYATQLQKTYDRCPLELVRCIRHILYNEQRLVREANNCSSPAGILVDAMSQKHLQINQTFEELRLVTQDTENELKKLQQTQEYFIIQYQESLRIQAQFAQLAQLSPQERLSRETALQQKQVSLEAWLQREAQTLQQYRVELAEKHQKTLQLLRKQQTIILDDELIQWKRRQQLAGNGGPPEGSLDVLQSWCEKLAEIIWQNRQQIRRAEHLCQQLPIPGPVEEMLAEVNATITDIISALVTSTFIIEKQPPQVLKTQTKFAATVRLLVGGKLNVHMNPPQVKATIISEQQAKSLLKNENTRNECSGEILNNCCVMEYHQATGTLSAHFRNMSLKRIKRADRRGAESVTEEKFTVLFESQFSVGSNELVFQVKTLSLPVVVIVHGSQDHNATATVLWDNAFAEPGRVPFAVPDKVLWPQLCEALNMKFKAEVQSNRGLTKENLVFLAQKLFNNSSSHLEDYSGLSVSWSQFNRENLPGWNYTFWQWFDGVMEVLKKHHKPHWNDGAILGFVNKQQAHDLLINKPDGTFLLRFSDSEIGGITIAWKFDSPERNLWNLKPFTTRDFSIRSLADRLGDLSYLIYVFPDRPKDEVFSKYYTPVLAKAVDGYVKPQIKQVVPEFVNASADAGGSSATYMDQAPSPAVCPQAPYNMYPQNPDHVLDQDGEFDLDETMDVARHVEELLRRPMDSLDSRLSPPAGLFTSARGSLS
Assay: Induction of STAT5 degradation in human SKNO-1 cells measured for 18 hrs by Western blot analysis
Assay type: cell-based

DC50	Compound
> 5000 nM	CC(C)(C)c1ccc(N(CCC(=O)NCCCC#Cc2cccc3c2CN(C2CCC(=O)NC2=O)C3=O)C(=O)[C@@H]2CCCN2C(=O)[C@@H](NC(=O)c2cc3cc(C(F)(F)P(=O)(O)O)ccc3s2)C(C)(C)C)cc1 (stereo partly drawn)
330 nM	CC(C)(C)[C@H](NC(=O)c1cc2cc(C(F)(F)P(=O)(O)O)ccc2s1)C(=O)N1CCC[C@H]1C(=O)N(CCC(=O)NCCCC#Cc1cccc2c1CN(C1CCC(=O)NC1=O)C2=O)c1ccc2occc2c1 (stereo partly drawn)
> 5000 nM	CC(C)(C)[C@H](NC(=O)c1cc2cc(C(F)(F)P(=O)(O)O)ccc2s1)C(=O)N1CCC[C@H]1C(=O)N(CCC(=O)NCCCC#Cc1cccc2c1CN(C1CCC(=O)NC1=O)C2=O)c1ccc(F)cc1 (stereo partly drawn)
2100 nM	CC(C)(C)[C@H](NC(=O)c1cc2cc(C(F)(F)P(=O)(O)O)ccc2s1)C(=O)N1CCC[C@H]1C(=O)N(CCC(=O)NCCCC#Cc1cccc2c1CN(C1CCC(=O)NC1=O)C2=O)c1ccc(Cl)cc1 (stereo partly drawn)
> 5000 nM	CC(C)(C)[C@H](NC(=O)c1cc2cc(C(F)(F)P(=O)(O)O)ccc2s1)C(=O)N1CCC[C@H]1C(=O)N(CCC(=O)NCCCC#Cc1cccc2c1CN(C1CCC(=O)NC1=O)C2=O)c1cccc(C#N)c1 (stereo partly drawn)
130 nM	CN(CCCC#Cc1cccc2c1CN(C1CCC(=O)NC1=O)C2=O)C(=O)CCN(C(=O)[C@@H]1CCCN1C(=O)[C@@H](NC(=O)c1cc2cc(C(F)(F)P(=O)(O)O)ccc2s1)C(C)(C)C)c1ccc2sccc2c1 (stereo partly drawn)
> 5000 nM	CC(C)(C)[C@H](NC(=O)c1cc2cc(C(F)(F)P(=O)(O)O)ccc2s1)C(=O)N1CCC[C@H]1C(=O)N(CCC(=O)NCCCC#Cc1cccc2c1CN(C1CCC(=O)NC1=O)C2=O)c1ccccc1 (stereo partly drawn)
210 nM	CC(C)(C)[C@H](NC(=O)c1cc2cc(C(F)(F)P(=O)(O)O)ccc2s1)C(=O)N1CCC[C@H]1C(=O)N(CCC(=O)NCCCC#Cc1cccc2c1CN(C1CCC(=O)NC1=O)C2=O)c1ccc(-c2cccs2)cc1 (stereo partly drawn)
130 nM	CC(C)(C)[C@H](NC(=O)c1cc2cc(C(F)(F)P(=O)(O)O)ccc2s1)C(=O)N1CCC[C@H]1C(=O)N(CCC(=O)NCCCC#Cc1cccc2c1CN(C1CCC(=O)NC1=O)C2=O)c1ccc(-c2nccs2)cc1 (stereo partly drawn)
2000 nM	CC(C)(C)[C@H](NC(=O)c1cc2cc(C(F)(F)P(=O)(O)O)ccc2s1)C(=O)N1CCC[C@H]1C(=O)N(CCC(=O)NCCCC#Cc1cccc2c1CN(C1CCC(=O)NC1=O)C2=O)c1ccc(C(F)(F)F)cc1 (stereo partly drawn)
> 5000 nM	CC(C)(C)[C@H](NC(=O)c1cc2cc(C(F)(F)P(=O)(O)O)ccc2s1)C(=O)N1CCC[C@H]1C(=O)N(CCCCCCCC#Cc1cccc2c1CN(C1CCC(=O)NC1=O)C2=O)c1ccc(-c2nccs2)cc1 (stereo partly drawn)
330 nM	CN(CCCC#Cc1cccc2c1CN(C1CCC(=O)NC1=O)C2=O)C(=O)CCN(C(=O)[C@@H]1CCCN1C(=O)[C@@H](NC(=O)c1cc2cc(C(F)(F)P(=O)(O)O)ccc2s1)C(C)(C)C)c1ccc2scnc2c1 (stereo partly drawn)
> 5000 nM	CC(C)(C)[C@H](NC(=O)c1cc2cc(C(F)(F)P(=O)(O)O)ccc2s1)C(=O)N1CCC[C@H]1C(=O)N(CCC(=O)NCCCC#Cc1cccc2c1CN(C1CCC(=O)NC1=O)C2=O)c1cccc2sccc12 (stereo partly drawn)
> 5000 nM	CC(C)(C)[C@H](NC(=O)c1cc2cc(C(F)(F)P(=O)(O)O)ccc2s1)C(=O)N1CCC[C@H]1C(=O)N(CCC(=O)NCCCC#Cc1cccc2c1CN(C1CCC(=O)NC1=O)C2=O)c1ccc(Cl)c(F)c1 (stereo partly drawn)
> 5000 nM	CC(C)(C)[C@H](NC(=O)c1cc2cc(C(F)(F)P(=O)(O)O)ccc2s1)C(=O)N1CCC[C@H]1C(=O)N(CCC(=O)NCCCC#Cc1cccc2c1CN(C1CCC(=O)NC1=O)C2=O)c1ccc2ncsc2c1 (stereo partly drawn)
210 nM	CC(C)(C)[C@H](NC(=O)c1cc2cc(C(F)(F)P(=O)(O)O)ccc2s1)C(=O)N1CCC[C@H]1C(=O)N(CCC(=O)NCCCC#Cc1cccc2c1CN(C1CCC(=O)NC1=O)C2=O)c1ccc2ccccc2c1 (stereo partly drawn)
530 nM	CC(C)(C)[C@H](NC(=O)c1cc2cc(C(F)(F)P(=O)(O)O)ccc2s1)C(=O)N1CCC[C@H]1C(=O)N(CCC(=O)NCCCC#Cc1cccc2c1CN(C1CCC(=O)NC1=O)C2=O)c1ccc(I)cc1 (stereo partly drawn)
> 5000 nM	CC(C)(C)[C@H](NC(=O)c1cc2cc(C(F)(F)P(=O)(O)O)ccc2s1)C(=O)N1CCC[C@H]1C(=O)N(CCC(=O)NCCCC#Cc1cccc2c1CN(C1CCC(=O)NC1=O)C2=O)c1cccc(C(F)(F)F)c1 (stereo partly drawn)
